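Test compounds were applied to cells in 96-well plates for 48 hours at 5 doses. Definition used: TGI = concentration required for complete inhibition of growth.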
Tests used:
Assay in all cases: growth of human tumour cells (NCI), 48 h
786-0 renal = test system: 786-0 renal
A498 renal = test system: A498 renal
A549 NSCLC = test system: A549 NSCLC
ACHN renal = test system: ACHN renal
CAKI-1 renal = test system: CAKI-1 renal
CCRF-CEM leukemia = test system: CCRF-CEM leukemia
COLO 205 colon = test system: COLO 205 colon
DMS 114 small cell lung = test system: DMS 114 small cell lung
DMS 273 small cell lung = test system: DMS 273 small cell lung
EKVX NSCLC = test system: EKVX NSCLC
HCT-116 colon = test system: HCT-116 colon
HCT-15 colon = test system: HCT-15 colon
HL-60(TB) leukemia = test system: HL-60(TB) leukemia
HOP-62 NSCLC = test system: HOP-62 NSCLC
HT29 colon = test system: HT29 colon
K-562 leukemia = test system: K-562 leukemia
KM12 colon = test system: KM12 colon
KM20L2 colon = test system: KM20L2 colon
LOX IMVI melanoma = test system: LOX IMVI melanoma
LXFL 529 NSCLC = test system: LXFL 529 NSCLC
M14 melanoma = test system: M14 melanoma
M19-MEL melanoma = test system: M19-MEL melanoma
MALME-3M melanoma = test system: MALME-3M melanoma
MOLT-4 leukemia = test system: MOLT-4 leukemia
NCI-H226 lung = test system: NCI-H226 lung
NCI-H23 lung = test system: NCI-H23 lung
NCI-H460 lung = test system: NCI-H460 lung
NCI-H522 lung = test system: NCI-H522 lung
OVCAR-3 ovarian = test system: OVCAR-3 ovarian
OVCAR-4 ovarian = test system: OVCAR-4 ovarian
OVCAR-5 ovarian = test system: OVCAR-5 ovarian
OVCAR-8 ovarian = test system: OVCAR-8 ovarian
RPMI-8226 leukemia = test system: RPMI-8226 leukemia
RXF 393 renal = test system: RXF 393 renal
SF-268 CNS = test system: SF-268 CNS
SF-295 CNS = test system: SF-295 CNS
SF-539 CNS = test system: SF-539 CNS
SK-MEL-2 melanoma = test system: SK-MEL-2 melanoma
SK-MEL-28 melanoma = test system: SK-MEL-28 melanoma
SK-MEL-5 melanoma = test system: SK-MEL-5 melanoma
SK-OV-3 ovarian = test system: SK-OV-3 ovarian
SN12C renal = test system: SN12C renal
SNB-19 CNS = test system: SNB-19 CNS
SNB-75 CNS = test system: SNB-75 CNS
SNB-78 CNS = test system: SNB-78 CNS
SR leukemia = test system: SR leukemia
SW-620 colon = test system: SW-620 colon
U251 CNS = test system: U251 CNS
UACC-257 melanoma = test system: UACC-257 melanoma
UACC-62 melanoma = test system: UACC-62 melanoma
UO-31 renal = test system: UO-31 renal
BT-549 breast = test system: BT-549 breast
DU-145 prostate = test system: DU-145 prostate
HCC-2998 colon = test system: HCC-2998 colon
HOP-92 NSCLC = test system: HOP-92 NSCLC
HS 578T breast = test system: HS 578T breast
IGROV1 ovarian = test system: IGROV1 ovarian
MCF7 breast = test system: MCF7 breast
MDA-MB-231 breast = test system: MDA-MB-231 breast
MDA-MB-435 = test system: MDA-MB-435
MDA-N = test system: MDA-N
NCI/ADR-RES ovarian = test system: NCI/ADR-RES ovarian
PC-3 prostate = test system: PC-3 prostate
T-47D breast = test system: T-47D breast
TK-10 renal = test system: TK-10 renal

O=c1c2cc(Br)ccc2nc(-c2ccccc2)n1NCC1(O)OCC(O)C(O)C1O (stereo not given)
TGI (786-0 renal): > 100 µM | TGI (A498 renal): > 100 µM | TGI (A549 NSCLC): > 100 µM | TGI (ACHN renal): > 100 µM | TGI (CAKI-1 renal): > 100 µM | TGI (CCRF-CEM leukemia): > 100 µM | TGI (COLO 205 colon): > 100 µM | TGI (DMS 114 small cell lung): > 100 µM | TGI (DMS 273 small cell lung): > 100 µM | TGI (EKVX NSCLC): > 100 µM | TGI (HCT-116 colon): > 100 µM | TGI (HCT-15 colon): > 100 µM | TGI (HL-60(TB) leukemia): > 100 µM | TGI (HOP-62 NSCLC): > 100 µM | TGI (HT29 colon): > 100 µM | TGI (K-562 leukemia): > 100 µM | TGI (KM12 colon): > 100 µM | TGI (KM20L2 colon): > 100 µM | TGI (LOX IMVI melanoma): > 100 µM | TGI (LXFL 529 NSCLC): > 100 µM | TGI (M14 melanoma): > 100 µM | TGI (M19-MEL melanoma): > 100 µM | TGI (MALME-3M melanoma): > 100 µM | TGI (MOLT-4 leukemia): > 100 µM | TGI (NCI-H226 lung): > 100 µM | TGI (NCI-H23 lung): > 100 µM | TGI (NCI-H460 lung): > 100 µM | TGI (NCI-H522 lung): > 100 µM | TGI (OVCAR-3 ovarian): > 100 µM | TGI (OVCAR-4 ovarian): > 100 µM | TGI (OVCAR-5 ovarian): > 100 µM | TGI (OVCAR-8 ovarian): > 100 µM | TGI (RPMI-8226 leukemia): > 100 µM | TGI (RXF 393 renal): > 100 µM | TGI (SF-268 CNS): > 100 µM | TGI (SF-295 CNS): > 100 µM | TGI (SF-539 CNS): > 100 µM | TGI (SK-MEL-2 melanoma): > 100 µM | TGI (SK-MEL-28 melanoma): > 100 µM | TGI (SK-MEL-5 melanoma): > 100 µM | TGI (SK-OV-3 ovarian): > 100 µM | TGI (SN12C renal): > 100 µM | TGI (SNB-19 CNS): > 100 µM | TGI (SNB-75 CNS): > 100 µM | TGI (SNB-78 CNS): > 100 µM | TGI (SR leukemia): > 100 µM | TGI (SW-620 colon): > 100 µM | TGI (U251 CNS): > 100 µM | TGI (UACC-257 melanoma): > 100 µM | TGI (UACC-62 melanoma): > 100 µM | TGI (UO-31 renal): > 100 µM

CCOC(=O)NC(Nc1ccc(F)c(F)c1)(C(=O)OCC)C(F)(F)F (stereo not given)
TGI (786-0 renal): > 100 µM | TGI (A498 renal): > 100 µM | TGI (A549 NSCLC): > 100 µM | TGI (ACHN renal): > 100 µM | TGI (BT-549 breast): > 100 µM | TGI (CAKI-1 renal): > 100 µM | TGI (CCRF-CEM leukemia): > 100 µM | TGI (COLO 205 colon): > 100 µM | TGI (DU-145 prostate): > 100 µM | TGI (EKVX NSCLC): > 100 µM | TGI (HCC-2998 colon): > 100 µM | TGI (HCT-116 colon): > 100 µM | TGI (HCT-15 colon): > 100 µM | TGI (HL-60(TB) leukemia): > 100 µM | TGI (HOP-62 NSCLC): > 100 µM | TGI (HOP-92 NSCLC): > 100 µM | TGI (HS 578T breast): > 100 µM | TGI (HT29 colon): > 100 µM | TGI (IGROV1 ovarian): > 100 µM | TGI (K-562 leukemia): > 100 µM | TGI (KM12 colon): > 100 µM | TGI (LOX IMVI melanoma): > 100 µM | TGI (M14 melanoma): > 100 µM | TGI (MALME-3M melanoma): > 100 µM | TGI (MCF7 breast): > 100 µM | TGI (MDA-MB-231 breast): > 100 µM | TGI (MDA-MB-435): > 100 µM | TGI (MDA-N): > 100 µM | TGI (MOLT-4 leukemia): > 100 µM | TGI (NCI-H226 lung): > 100 µM | TGI (NCI-H23 lung): > 100 µM | TGI (NCI-H460 lung): > 100 µM | TGI (NCI-H522 lung): > 100 µM | TGI (NCI/ADR-RES ovarian): > 100 µM | TGI (OVCAR-3 ovarian): > 100 µM | TGI (OVCAR-4 ovarian): > 100 µM | TGI (OVCAR-5 ovarian): > 100 µM | TGI (OVCAR-8 ovarian): > 100 µM | TGI (PC-3 prostate): > 100 µM | TGI (RPMI-8226 leukemia): > 100 µM | TGI (RXF 393 renal): > 100 µM | TGI (SF-268 CNS): > 100 µM | TGI (SF-295 CNS): > 100 µM | TGI (SF-539 CNS): > 100 µM | TGI (SK-MEL-2 melanoma): > 86.5 µM | TGI (SK-MEL-28 melanoma): > 100 µM | TGI (SK-MEL-5 melanoma): > 100 µM | TGI (SK-OV-3 ovarian): > 100 µM | TGI (SN12C renal): > 100 µM | TGI (SNB-19 CNS): > 100 µM | TGI (SNB-75 CNS): > 100 µM | TGI (SR leukemia): > 100 µM | TGI (SW-620 colon): > 100 µM | TGI (T-47D breast): > 100 µM | TGI (TK-10 renal): > 100 µM | TGI (U251 CNS): > 100 µM | TGI (UACC-257 melanoma): > 100 µM | TGI (UACC-62 melanoma): > 100 µM | TGI (UO-31 renal): > 100 µM
